Reference: PubChem BioAssay (NCI)
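At the GI50, growth is halved. TGI: concentration producing complete growth inhibition.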

Experiments:
Assay in all cases: NCI anticancer screen, dose series, 384-well format
786-0 renal = test system: 786-0 renal
A498 renal = test system: A498 renal
A549 NSCLC = test system: A549 NSCLC
ACHN renal = test system: ACHN renal
BT-549 breast = test system: BT-549 breast
CAKI-1 renal = test system: CAKI-1 renal
COLO 205 colon = test system: COLO 205 colon
DU-145 prostate = test system: DU-145 prostate
EKVX NSCLC = test system: EKVX NSCLC
HCC-2998 colon = test system: HCC-2998 colon
HCT-116 colon = test system: HCT-116 colon
HCT-15 colon = test system: HCT-15 colon
HL-60(TB) leukemia = test system: HL-60(TB) leukemia
HOP-62 NSCLC = test system: HOP-62 NSCLC
HOP-92 NSCLC = test system: HOP-92 NSCLC
HS 578T breast = test system: HS 578T breast
IGROV1 ovarian = test system: IGROV1 ovarian
KM12 colon = test system: KM12 colon
LOX IMVI melanoma = test system: LOX IMVI melanoma
M14 melanoma = test system: M14 melanoma
MALME-3M melanoma = test system: MALME-3M melanoma
MCF7 breast = test system: MCF7 breast
MDA-MB-231 breast = test system: MDA-MB-231 breast
MDA-MB-435 melanoma = test system: MDA-MB-435 melanoma
MDA-MB-468 breast = test system: MDA-MB-468 breast
MOLT-4 leukemia = test system: MOLT-4 leukemia
NCI-H226 lung = test system: NCI-H226 lung
NCI-H23 lung = test system: NCI-H23 lung
NCI-H322M lung = test system: NCI-H322M lung
NCI-H460 NSCLC = test system: NCI-H460 NSCLC
NCI-H522 lung = test system: NCI-H522 lung
NCI/ADR-RES ovarian = test system: NCI/ADR-RES ovarian
OVCAR-3 ovarian = test system: OVCAR-3 ovarian
OVCAR-4 ovarian = test system: OVCAR-4 ovarian
OVCAR-5 ovarian = test system: OVCAR-5 ovarian
OVCAR-8 ovarian = test system: OVCAR-8 ovarian
PC-3 prostate = test system: PC-3 prostate
RPMI-8226 leukemia = test system: RPMI-8226 leukemia
RXF 393 renal = test system: RXF 393 renal
SF-268 CNS = test system: SF-268 CNS
SF-295 CNS = test system: SF-295 CNS
SF-539 CNS = test system: SF-539 CNS
SK-MEL-28 melanoma = test system: SK-MEL-28 melanoma
SK-MEL-5 melanoma = test system: SK-MEL-5 melanoma
SK-OV-3 ovarian = test system: SK-OV-3 ovarian
SN12C renal = test system: SN12C renal
SNB-19 CNS = test system: SNB-19 CNS
SNB-75 CNS = test system: SNB-75 CNS
SR leukemia = test system: SR leukemia
SW-620 colon = test system: SW-620 colon
T-47D breast = test system: T-47D breast
TK-10 renal = test system: TK-10 renal
U251 glioblastoma = test system: U251 glioblastoma
UACC-257 melanoma = test system: UACC-257 melanoma
UACC-62 melanoma = test system: UACC-62 melanoma
UO-31 renal = test system: UO-31 renal

C#CCC(Cc1cnc2nc(N)nc(N)c2n1)c1ccc(C(=O)N[C@@H](CCC(=O)O)C(=O)O)cc1 (some centres not stated)
GI50 (786-0 renal): < 10 nM | TGI (786-0 renal): < 10 nM | GI50 (A498 renal): < 10 nM | TGI (A498 renal): < 10 nM | GI50 (A549 NSCLC): < 10 nM | TGI (A549 NSCLC): < 10 nM | GI50 (ACHN renal): < 10 nM | TGI (ACHN renal): < 10 nM | GI50 (BT-549 breast): < 10 nM | TGI (BT-549 breast): < 10 nM | GI50 (CAKI-1 renal): < 10 nM | TGI (CAKI-1 renal): < 10 nM | GI50 (COLO 205 colon): < 10 nM | TGI (COLO 205 colon): < 10 nM | GI50 (DU-145 prostate): < 10 nM | TGI (DU-145 prostate): > 100000 nM | GI50 (EKVX NSCLC): < 10 nM | TGI (EKVX NSCLC): < 10 nM | GI50 (HCC-2998 colon): < 10 nM | TGI (HCC-2998 colon): > 100000 nM | GI50 (HCT-116 colon): < 10 nM | TGI (HCT-116 colon): > 100000 nM | GI50 (HCT-15 colon): < 10 nM | TGI (HCT-15 colon): > 100000 nM | GI50 (HL-60(TB) leukemia): < 10 nM | TGI (HL-60(TB) leukemia): < 10 nM | GI50 (HOP-62 NSCLC): < 10 nM | TGI (HOP-62 NSCLC): < 10 nM | GI50 (HOP-92 NSCLC): < 10 nM | TGI (HOP-92 NSCLC): < 10 nM | GI50 (HS 578T breast): < 10 nM | TGI (HS 578T breast): < 10 nM | GI50 (IGROV1 ovarian): < 10 nM | TGI (IGROV1 ovarian): < 10 nM | GI50 (KM12 colon): < 10 nM | TGI (KM12 colon): > 100000 nM | GI50 (LOX IMVI melanoma): < 10 nM | TGI (LOX IMVI melanoma): < 10 nM | GI50 (M14 melanoma): < 10 nM | TGI (M14 melanoma): < 10 nM | GI50 (MALME-3M melanoma): < 10 nM | TGI (MALME-3M melanoma): < 10 nM | GI50 (MCF7 breast): < 10 nM | TGI (MCF7 breast): > 100000 nM | GI50 (MDA-MB-231 breast): 905 nM | TGI (MDA-MB-231 breast): 2410 nM | GI50 (MDA-MB-435 melanoma): < 10 nM | TGI (MDA-MB-435 melanoma): < 10 nM | GI50 (MDA-MB-468 breast): < 10 nM | TGI (MDA-MB-468 breast): < 10 nM | GI50 (MOLT-4 leukemia): < 10 nM | TGI (MOLT-4 leukemia): < 10 nM | GI50 (NCI-H226 lung): < 10 nM | TGI (NCI-H226 lung): < 10 nM | GI50 (NCI-H23 lung): < 10 nM | TGI (NCI-H23 lung): < 10 nM | GI50 (NCI-H322M lung): < 10 nM | TGI (NCI-H322M lung): < 10 nM | GI50 (NCI-H460 NSCLC): < 10 nM | TGI (NCI-H460 NSCLC): > 100000 nM | GI50 (NCI-H522 lung): < 10 nM | TGI (NCI-H522 lung): < 10 nM | GI50 (NCI/ADR-RES ovarian): < 10 nM | TGI (NCI/ADR-RES ovarian): < 10 nM | GI50 (OVCAR-3 ovarian): < 10 nM | TGI (OVCAR-3 ovarian): < 10 nM | GI50 (OVCAR-4 ovarian): < 10 nM | TGI (OVCAR-4 ovarian): < 10 nM | GI50 (OVCAR-5 ovarian): < 10 nM | TGI (OVCAR-5 ovarian): < 10 nM | GI50 (OVCAR-8 ovarian): < 10 nM | TGI (OVCAR-8 ovarian): < 10 nM | GI50 (PC-3 prostate): < 10 nM | TGI (PC-3 prostate): < 10 nM | GI50 (RPMI-8226 leukemia): < 10 nM | TGI (RPMI-8226 leukemia): < 10 nM | GI50 (RXF 393 renal): < 10 nM | TGI (RXF 393 renal): < 10 nM | GI50 (SF-268 CNS): < 10 nM | TGI (SF-268 CNS): < 10 nM | GI50 (SF-295 CNS): < 10 nM | TGI (SF-295 CNS): < 10 nM | GI50 (SF-539 CNS): < 10 nM | TGI (SF-539 CNS): < 10 nM | GI50 (SK-MEL-28 melanoma): < 10 nM | TGI (SK-MEL-28 melanoma): < 10 nM | GI50 (SK-MEL-5 melanoma): < 10 nM | TGI (SK-MEL-5 melanoma): < 10 nM | GI50 (SK-OV-3 ovarian): < 10 nM | TGI (SK-OV-3 ovarian): < 10 nM | GI50 (SN12C renal): < 10 nM | TGI (SN12C renal): < 10 nM | GI50 (SNB-19 CNS): < 10 nM | TGI (SNB-19 CNS): < 10 nM | GI50 (SNB-75 CNS): < 10 nM | TGI (SNB-75 CNS): < 10 nM | GI50 (SR leukemia): < 10 nM | TGI (SR leukemia): < 10 nM | GI50 (SW-620 colon): < 10 nM | TGI (SW-620 colon): < 10 nM | GI50 (T-47D breast): < 10 nM | TGI (T-47D breast): < 10 nM | GI50 (TK-10 renal): < 10 nM | TGI (TK-10 renal): < 10 nM | GI50 (U251 glioblastoma): < 10 nM | TGI (U251 glioblastoma): < 10 nM | GI50 (UACC-257 melanoma): < 10 nM | TGI (UACC-257 melanoma): < 10 nM | GI50 (UACC-62 melanoma): < 10 nM | TGI (UACC-62 melanoma): < 10 nM | GI50 (UO-31 renal): < 10 nM | TGI (UO-31 renal): < 10 nM
